Measurements reported in US20260242759A1, “GQ/11 Protein Peptidomimetics” (Vrije Universiteit Brussel, priority 2022, published 2026).
Non-standard residues stand in square brackets, D forms with d. Residues, ends and D or L forms follow the SMILES beside them. Cha = N[C@@H](CC1CCCCC1)C(=O)O

Tests used:
[1] = biological target: T1, human ghrelin receptor (GHSR) (Homo sapiens, UniProt Q92847, C146S/C304S); assay: Bimane fluorescence assay on purified ghrelin receptor in nanodiscs; assay type: biochemical; settings: bimane labeled GHSR, in presence of JMV1843
T1 construct: integrin α5 fragment (N); polyhistidine tag (C); made in house; host or cells: E. coli BL21(DE3)
Outline: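 E. coli-expressed human ghrelin receptor (cysmin mutant, N-terminal integrin α5 fragment, C-terminal His-tag) purified into lipid nanodiscs and labelled with monobromobimane at Cys255 (16 h, 4° C, dark). Labelled receptor (0.2 μM final) incubated 2 h at 20° C with or without JMV1843 (20 μM) and peptidomimetics at varying molar ratios, or Gαqβ1γ2 at 1:5 receptor:G protein; emission scanned 440–520 nm with excitation at 380 nm for λmax shift.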

ghrelin receptor = biological target: T2, ghrelin receptor (Homo sapiens, UniProt Q92847); assay: IP-One Gq assay; assay type: cell-based; settings: peptidomimetic at 10 μM, varying MK0677; FIG. 8
T2 construct: expressed in transfected cells; host or cells: HEK293 cells overexpressing the ghrelin receptor
Description: IP-One assays were conducted by using a homogeneous time-resolved fluorescence resonance energy transfer (TRFRET) assay (cisbio, IP-One Gq kit). The assays were performed on 384-well plates, containing 5000 cells/well. The HEK293 cells, in stimulation buffer (1×), were incubated with 5 or 10 μM of peptides (in stimulation buffer) during 1 h at 37° C. […] Finally, the d2-labeled IP1 and anti-IP1-cryptate, diluted in lysis buffer, were added to each well and incubated at room temperature. After 2 h of incubation in the dark, the plates were analyzed using the PHERAstar microplate reader.
The IP-One Gq assay detects the accumulation of inositol monophosphate (IP1), a metabolite produced following phospholipase C activation.
The assays were performed on 384-well plates containing HEK293 cells that overexpress the ghrelin receptor. First, the Gq/11 peptidomimetics were incubated during 1 h to allow penetration in the cells. […] After 45 min of incubation, the cells were lysed and d2-labeled IP1 (acceptor, 665 nm) was exogenously added to compete with the native unlabeled IP1 for binding with the anti-IP1-Cryptate (donor, 620 nm). Fluorescence was measured and the fluorescence ratio (665 nm/620 nm) was determined.

HEK293 1C8 cells = assay: MTT cytotoxicity assay; assay type: cell-based, human; settings: varying concentrations up to 40 μM, 3 h 45 min
Description: Cells were washed two times with PBS and incubated with 3-(4,5-dimethylthiazol-2-yl)-2,5-diphenyltetrazolium bromide (MTT) during 3 h, at 37° C. Afterwards, cells were washed once with PBS and then incubated for 10 min with DMSO. Plates were analysed with a Tecan Spark 10 M microplate reader.
An MTT assay was used to assess the cytotoxicity of the non-fluorescent Gq/11 peptidomimetics of Example 5. An MTT assay is a colorimetric test that evaluates the cell metabolic activity and reflects the cell viability.

T2 sequence (Q92847 whole entry): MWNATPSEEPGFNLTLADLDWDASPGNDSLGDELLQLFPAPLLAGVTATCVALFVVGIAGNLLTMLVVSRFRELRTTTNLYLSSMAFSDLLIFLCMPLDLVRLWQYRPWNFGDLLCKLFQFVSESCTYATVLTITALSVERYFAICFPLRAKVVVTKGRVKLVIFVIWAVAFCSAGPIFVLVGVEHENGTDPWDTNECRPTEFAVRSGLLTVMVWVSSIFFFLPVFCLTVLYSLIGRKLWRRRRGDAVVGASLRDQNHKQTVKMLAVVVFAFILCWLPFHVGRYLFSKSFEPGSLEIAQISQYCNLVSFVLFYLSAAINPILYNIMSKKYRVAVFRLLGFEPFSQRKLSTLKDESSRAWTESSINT
T1 sequence (Q92847 whole entry C146S/C304S, the tested form may be a part): as the sequence (Q92847 whole entry) above, with C146S, C304S counted along it

SMILES: CC[C@H](C)[C@H](NC(=O)[C@@H](NC(=O)[C@H](CC(=O)O)NC(=O)[C@H](CCCCN)NC(=O)[C@@H](NC(=O)[C@H](C)NC(=O)[C@H](C)NC(=O)[C@H](Cc1ccccc1)NC(=O)[C@H](CCCCN)NC(=O)[C@H](CCCCN)NC(=O)[C@H](CCCCN)NC(C)=O)C(C)C)[C@@H](C)O)C(=O)N[C@@H](CC(C)C)C(=O)N[C@@H](CCC(N)=O)C(=O)N[C@@H](CC(C)C)C(=O)N[C@@H](CC(N)=O)C(=O)N[C@@H](CC(C)C)C(=O)N[C@@H](CCCCN)C(=O)N[C@@H](CCC(=O)O)C(=O)N[C@@H](Cc1ccc(O)cc1)C(=O)N[C@@H](CC(N)=O)C(=O)N[C@@H](CC1CCCCC1)C(=O)N[C@H](C(=O)O)C(C)C [SBL-GQ-04] (Ac-KKKFAAVKDTILQLNLKEYN[Cha]V-OH)
- conformational change in the receptor [1]: not able to induce a conformational change
- receptor activation / fluorescence ratio (665 nm/620 nm) vs absence of peptidomimetic (ghrelin receptor): Almost no difference in receptor activation
- cytotoxicity / viability (HEK293 1C8 cells): No cytotoxicity
